US20220362386A1, “LIQUID COMPOSITIONS COMPRISING A LEVODOPA AMINO ACID CONJUGATE AND USES THEREOF” (NeuroDerm, Ltd., priority 2019, published 2022)
Structures can show the parent of a compound that is named as a salt. Where two headings read alike, the source gives them in different places. Non-standard residues stand in square brackets, D forms with d. Residues, ends and D or L forms follow the SMILES beside them. Dopa = N[C@@H](Cc1ccc(O)c(O)c1)C(=O)O

How the values were obtained:
[1] = Human liver S9 stability test; format: in vitro ADME; conditions: substrate 10 μM, S9 protein 0.2 mg/mL
Protocol: The stability of several LDAA compounds, in their TFA salt form, in human liver S9 was tested using commercially available liver S9. The substrate concentration was 10 μM, the S9 protein concentration was 0.2 mg/mL, and the incubation time 0, 5, 15, 30 and 60 minutes.
The results are described in Table 18, wherein the results describe the Ke, i.e., the slope of the percentage decrease of the remaining amount of the compound, measured at each of the above time points, such that the higher the Ke the faster the metabolism.

[2] = Human blood stability test; format: in vitro ADME; design: key: slope of % decrease of remaining compound over time; higher = faster metabolism; conditions: slope of the percentage decrease of remaining compound; substrate 10 μM; 0-60 minutes
Protocol: The stability of several LDAA compounds in human blood was tested. The substrate concentration was 10 μM and the incubation time 0, 5, 15, 30 and 60 minutes.
The results are described in Table 19, wherein the results describe the Ke, i.e., the slope of the percentage decrease of the remaining amount of the compound, measured at each of the above time points, such that the higher the Ke the faster the metabolism.

[3] = Protein binding, equilibrium dialysis method; format: in vitro ADME, human; conditions: human, human plasma, pH 7.4, 1.0E-05M
Protocol: (§1) The protein binding values of various LDAA compounds in their TFA salt form (10^−5M) were tested in human plasma. The equilibrium dialysis technique was used to separate the fraction of the test compound that was unbound from the fraction of the test compound that bound to proteins during the test. The test was performed on 96-well plates in a dialysis block constructed from Teflon™.
(§2) The protein containing matrix used was human plasma, wherein the assay matrix was human serum albumin and alpha-1 acid glycoprotein. The protein matrix was spiked with each test compound at 10 μM (by default, n=2) with a final DMSO concentration of 1%. The dialysate compartment is loaded with phosphate buffered saline (PBS, pH 7.4), and the sample compartment was loaded with an equal volume of the spiked protein matrix. The dialysis plate was then sealed and incubated at 37° C. for 4 h.
(§3) Following the incubation, samples were taken from each compartment, diluted with PBS followed by the addition of acetonitrile, after which the samples were centrifuged. The supernatants were collected and analyzed by HPLC-MS/MS. The HPLC tests included a binary LC pump with an autosampler, a C18 column (2×20 mm), and gradient elution. The HPLC conditions were adjusted when necessary.
(§4) A control sample (n=2) was prepared from the spiked protein matrix in the same manner; however, no dialysis was performed on the control. It is noted that the control sample served as the bases for the recovery determination.
(§5) Acebutolol, quinidine, and warfarin were used in each assay as reference compounds, wherein it is known that those reference compounds provide low, medium and high human plasma protein binding values, respectively.
(§6) The % of the tested compound that is bound to proteins and the recovery values were calculated as follows:
(§7) Protein binding (%)=100×(Areap−Areab)/Areap
(§8) Recovery (%)=100×(Areap−Areab)/Areac
(§9) The determination of the recovery % serves as an indicator of reliability of the calculated protein binding value. […] This is most likely due to non-specific binding or degradation of the test compound. It is noted that a recovery of above 60% is considered to be reliable, while under 60% recovery, the results of the test are considered to be unreliable.

human plasma = test: Protein binding, equilibrium dialysis method; format: in vitro ADME; conditions: 1.0E-05M; 37° C., 4 h
Protocol: as §1, §2, §3, §4, §5, §6, §7, §8, §9

[4] = In-vitro absorption, Caco-2 A-B permeability; format: in vitro ADME, human; conditions: human, Caco-2, pH 7.4, Caco-2 A-B, without verapamil; for Papp A→B at 60 min, 10 μM: 1.0E−05M
Protocol: (§10) Conditions may be adjusted when necessary.
(§11) D denotes donor and R is receiver. […] V is the volume of the donor or receiver.
(§12) The test was performed with and without verapamil, which is a permeation inhibitor, and the results are presented in Tables 22 (without verapamil) and 34 (with verapamil).

P-gp = test: In-vitro absorption, Caco-2 A-B permeability; format: in vitro ADME, human; conditions: human, Caco-2, pH 7.4, with verapamil 100 μM on both the A and B sides, Caco-2 A-B, in the presence of verapamil
Protocol: as §10, §11, §12

[5] = Comparative formulation tests, physical stability (Tables 32a-c, 33a-c); format: physicochemical; conditions: LDAA TFA salt/CD formulation; for Physical stability (visual), Day 1: Day 1, room temperature; for Physical stability (visual), Day 2: Day 2, room temperature; for Physical stability (visual), Day 5: Day 5, room temperature after two days at 2-8° C.; for Physical stability (visual), Day 6: Day 6, room temperature after two days at 2-8° C.; for Physical stability (visual), Day 40: Day 40, returned to 2-8° C.
Protocol: It is noted that the formulations were similarly to those above; however, CD was added, and further, the amounts of the antioxidants, i.e., ascorbic acid and NAC, were added at three different concentrations, as detailed in Tables 32a-c below. Further, an additional amount of arginine was added to the solution in order to adjust the pH to a physiologically acceptable pH.
The formulations prepared as detailed in Tables 32a, 32b and 32c were (a) held at room temperature for two days; (b) transferred to a refrigerator (2-8° C.) for two days; and (c) transferred from the refrigerator to room temperature for an additional two days, during which they were assessed again for precipitants. The formulations were then returned to the refrigerator (2-8° C.) and assessed for precipitants on day 40. The physical stability of each formulation was assessed on the first two days and again on the last two days. The physical stability of the formulations was assessed visually. A clear solution was considered to be stable, while a solution comprising precipitants was considered to be physically unstable. The stability results of the formulations of Tables 32a, 32b and 32c are detailed in Tables 33a, 33b and 33c, respectively.

[6] = read-out: Percent Recovery Mean
[7] = NB 144-15, ~0.1% Asc + ~0.1% NAC
[8] = NB 144-18, ~0.4% Asc + ~0.4% NAC
[9] = NB 144-20, ~0.8% Asc + ~0.8% NAC

SMILES: NCCCC[C@H](NC(=O)[C@@H](N)Cc1ccc(O)c(O)c1)C(=O)O [LD-Lys TFA salt, Levodopa Lysine TFA Salt] (H-[Dopa]-Lys-OH)
- Ke ([1]; slope of the percentage decrease of remaining compound, 0-60 minutes): 0.0788
- metabolism in human liver S9 (in words) [1]: rapidly metabolized
- Ke [2]: 0.0655
- recovery at 4 h, 10 μM ([3]; read-out: % Recovery 1st): 12%
- recovery at 4 h, 10 μM ([3]; read-out: % Recovery 2nd): 19%
- recovery at 4 h, 10 μM ([3]; read-out: % Recovery Mean): 16%
- % Protein Bound 1st (human plasma): 59.5%
- % Protein Bound 2nd (human plasma): 53.1%
- % Protein Bound Mean (human plasma): 56%
- Papp A→B at 60 min, 10 μM ([4]; read-out: Permeability 1st): 0.12 ×10⁻⁶ cm/s
- Papp A→B at 60 min, 10 μM ([4]; read-out: Permeability 2nd): 0.09 ×10⁻⁶ cm/s
- Papp A→B at 60 min, 10 μM ([4]; read-out: Permeability Mean): < 0.1 ×10⁻⁶ cm/s
- recovery at 60 min, 10 μM ([4]; read-out: Percent Recovery 1st): 21%
- recovery at 60 min, 10 μM ([4]; read-out: Percent Recovery 2nd): 38%
- recovery at 60 min, 10 μM [4, 6]: 30%
- recovery at 60 min, 10 μM (P-gp; read-out: Percent Recovery 1st): 33%
- recovery at 60 min, 10 μM (P-gp; read-out: Percent Recovery 2nd): 33%
- recovery at 60 min, 10 μM (P-gp; [6]): 33%
- Physical stability (visual), Day 1 [5, 7]: Precipitated
- Physical stability (visual), Day 2 [5, 7]: Precipitated
- Physical stability (visual), Day 5 [5, 7]: Precipitated
- Physical stability (visual), Day 6 [5, 7]: Precipitated
- Physical stability (visual), Day 40 [5, 7]: Precipitated
- Physical stability (visual), Day 1 [5, 8]: Stable
- Physical stability (visual), Day 2 [5, 8]: Stable
- Physical stability (visual), Day 5 [5, 8]: Precipitated
- Physical stability (visual), Day 6 [5, 8]: Precipitated
- Physical stability (visual), Day 40 [5, 8]: Precipitated
- Physical stability (visual), Day 1 [5, 9]: Stable
- Physical stability (visual), Day 2 [5, 9]: Stable
- Physical stability (visual), Day 5 [5, 9]: Precipitated
- Physical stability (visual), Day 6 [5, 9]: Precipitated
- Physical stability (visual), Day 40 [5, 9]: Precipitated
